Patent US8178091B2, “Compositions and methods for the treatment of respiratory disorders” (University of Washington, priority 2007, dated 2012)
“Also recorded” adds a separate entry of the source. Read-outs that look alike come from different tables or passages of the source.

Legend:
IGF-1R [1] = molecular target: T1, IGF-1R (Homo sapiens, UniProt P08069); conditions: cited from earlier work
IGF-1R [2] = molecular target: T1, IGF-1R; conditions: cited from earlier work; remark: listed apart in the source
[3] = oxidation; cited from earlier work
PDGFR = conditions: intact cells; cited from earlier work
[4] = test system: primary mouse lung fibroblasts; experiment: migration assay (FluoroBlok transwell); format: cell-based, C57BL6 mice
Experimental: Mouse lung fibroblasts were plated FluoroBlok transwell filters overnight, then IGF-1 (100 ng/ml), serum free media (negative control), 10% serum (positive control) was added to lower chamber. Some cells were preincubated with the blocking antibody to IGF-1R (A12, 40 μg/ml) before the addition of IGF-1. Cells were allowed to migrate through membrane for 4 hours @ 37° C. Migrated cells were counted with Fluorescent microscope. Each experiments was done in triplicate and repeated at least three times. Average cell count ±SD are presented.
For migration assays, primary mouse lung fibroblasts (50,000 cells/well) were plated in serum-free medium overnight on Fluoroblok transwell filters (8 μm pores, HTS FluoroBlok™ 24-Multiwell Insert System, BD Bioscience, Bedford, Mass.) pre-coated with fibronectin (50 μg/ml). Fluoroblok microporous membranes are specifically designed to detect by fluorescence only cells below the surface membrane. IGF-1 (100 ng/ml), 10% FBS (positive control) or serum-free media (negative control) was added to lower chamber. In some experiments, cells were preincubated with the blocking antibody to IGF-1R (A12, 40 μg/ml), for 1 hour. After 4 hours of migration, filters were fixed with formaldehyde and stained with DAPI (4′6-Diamidine-2′-phenylindole dihydrochloride, Roche, Indianapolis, Ind.). Migrated cells were counted in three predesignated fields for each filter. All experiments were done in triplicate and repeated at least three times.

IGF-1R [5] = molecular target: T1, IGF-1R; conditions: cited from earlier work; remark: listed apart in the source
IR [6] = molecular target: IR (Homo sapiens, UniProt P06213); conditions: even at high concentrations; cited from earlier work
[7] = rats; cited from earlier work
IGF-1R-positive tumors = conditions: mice; cited from earlier work
β-tubulin = conditions: interaction with β-tubulin, mitotic arrest; cited from earlier work
tumors = conditions: nude mice; cited from earlier work
IGF-1R [8] = molecular target: T1, IGF-1R; conditions: cited from earlier work; remark: listed apart in the source
IR [9] = conditions: in vivo; cited from earlier work
[10] = test system: primary mouse lung fibroblasts; experiment: proliferation assay (MTT); format: cell-based, C57BL6 mice
Experimental: Mouse lung fibroblasts from saline-treated mice (A) or bleomycin-treated mice (B) were plated in triplicate and serum-starved overnight followed by addition of IGF-1 (100 ng/ml), serum-free media (negative control), 10% FBS (positive control), and then incubated for indicated time. Cell proliferation was measured by MTT assay. Data are shown as mean OD570 nm±SD and are average of at least 4 independent experiments.
For proliferation assays, primary mouse lung fibroblasts were plated at 10,000 cells/100 μl in 96-well plates. After initial adhesion, medium was changed to serum free overnight and then IGF-1 (100 ng/ml) was added. As a positive control, cells were grown in 10% FBS; as a negative control, cell were grown in serum-free media. Cell proliferation was assayed at 48, 72 or 96 hours by colorimetric methyl thiazolyl tetrazolium (MTT) assay per manufacturer's direction (Qiang et al., Blood 103:301-308 (2004)). Optical density of plates was read on a Spectra Max 250 (Molecular Device, Sunnyvale, Calif.) at 570 nm. All experiments were done in triplicate and repeated three times.

mouse lung fibroblasts = experiment: Western blot of signaling in IGF-stimulated lung fibroblasts; format: cell-based; conditions: IGF-1 100 ng/ml
Experimental: Tyrosine phosphorylation of receptor tyrosine kinase substrates was evaluated. Mouse lung fibroblasts were serum-starved overnight and then stimulated with IGF-1 (100 ng/ml) for indicated times. Cells were lysed, and proteins separated by SDS-PAGE. Each membrane was blotted with indicated phospho-antibody then stripped and reblotted with antibody to total protein. Substrates include IGF-1R, IRS-1 and IRS-2. The tyrosine phosphorylated forms of the substrates are indicated by pIGF-1R, pIRS-1 and pIRS-2, respectively.
Tyrosine phosphorylation of receptor tyrosine kinase substrates was evaluated. Substrates include AKT, ERK. The tyrosine phosphorylated forms of the substrates are indicated by pAKT, pERK, respectively.
For Western Blot analyses, cells were grown to 70% confluence, placed in serum free medium overnight and then IGF-1 (100 ng/ml) was added for 5, 10, 15, 30 and 60 minutes. At indicated time points, cells were washed in ice-cold PBS and lysed in buffer containing 100 mM Tri-HCl (pH 7.4), 150 mM NaCl, 1 mM CaCl2, 0.1% SDS, 1% Triton-X, 0.1% NP-40, 1 mM […] (sodium vanadate), 1 mM NaF (sodium Fluoride) and protease inhibitor cocktail tablet (Roche). Protein concentrations were determined by the BCA assay (Pierce). Equal amounts of protein were separated by sodium dodecyl sulfate-polyacrylamide gel electrophoresis (SDS-PAGE), and electrophoretically transferred to PVDF membrane. Membranes were blocked with 5% nonfat dry milk/0.05% Tween-20/PBS for 2 hours, incubated with primary antibody for 2 hours at room temperature, washed with 0.05% Tween-20/PBS, incubated with horseradish peroxidase-conjugated secondary antibody (1:5000) for 2 h, washed with 0.05% Tween-20/PBS and then developed with enhanced chemiluminescence (ECL) technique (Amersham, England).

[11] = test system: primary normal human lung fibroblasts; experiment: apoptosis assay (Cell Death Detection ELISA-plus), lung fibroblasts; format: cell-based; conditions: serum starvation, increasing concentrations
Experimental: (§1) A: Normal human lung fibroblast or distal lung epithelial cells were serum-starved overnight and then incubated with indicated concentration of IGF-1R antibody or IGFBP-3 overnight. B: A549 cells were serum-starved and incubated with IGF-1R antibody (136 μg/ml) with or without the indicated concentration of Fas ligand. Apoptosis was measured by Cell Death ELISA-plus ELISA (Roche Applied Science) per the manufacturer's directions. All experiments were done in triplicate and repeated at least twice. Apoptosis index is defined as the ratio of experimental condition OD405 nm: control (media alone) OD405 nm.
(§2) Primary normal human lung fibroblasts (Clonetics, Cambrex Bioscience, Rockland, Me.), primary distal lung human epithelial cells (Clonetics) or A549 (American Type Culture Collection, Manassas, Va.) were seeded in a 96-well tissue culture plate (2×10^4 cells/well) overnight and serum-starved for 24 hours. […] After 48 hours, apoptosis was measured. To prevent detached cells from being aspirated, plates were centrifuged at 200×g for 10 minutes, and apoptosis was measured using the Cell Death Detection ELISA-plus System (Roche Applied Science, Penzberg, Germany), which detects cytosolic histone-complexed DNA fragments. […]

[12] = test system: primary distal lung human epithelial cells; experiment: apoptosis assay (Cell Death Detection ELISA-plus), lung epithelial cells; format: cell-based; conditions: serum starvation, increasing concentrations
Experimental: as §1, §2

human IGF-1R mRNA = conditions: cited from earlier work

T1 sequence (P08069 31-1367, species assumed): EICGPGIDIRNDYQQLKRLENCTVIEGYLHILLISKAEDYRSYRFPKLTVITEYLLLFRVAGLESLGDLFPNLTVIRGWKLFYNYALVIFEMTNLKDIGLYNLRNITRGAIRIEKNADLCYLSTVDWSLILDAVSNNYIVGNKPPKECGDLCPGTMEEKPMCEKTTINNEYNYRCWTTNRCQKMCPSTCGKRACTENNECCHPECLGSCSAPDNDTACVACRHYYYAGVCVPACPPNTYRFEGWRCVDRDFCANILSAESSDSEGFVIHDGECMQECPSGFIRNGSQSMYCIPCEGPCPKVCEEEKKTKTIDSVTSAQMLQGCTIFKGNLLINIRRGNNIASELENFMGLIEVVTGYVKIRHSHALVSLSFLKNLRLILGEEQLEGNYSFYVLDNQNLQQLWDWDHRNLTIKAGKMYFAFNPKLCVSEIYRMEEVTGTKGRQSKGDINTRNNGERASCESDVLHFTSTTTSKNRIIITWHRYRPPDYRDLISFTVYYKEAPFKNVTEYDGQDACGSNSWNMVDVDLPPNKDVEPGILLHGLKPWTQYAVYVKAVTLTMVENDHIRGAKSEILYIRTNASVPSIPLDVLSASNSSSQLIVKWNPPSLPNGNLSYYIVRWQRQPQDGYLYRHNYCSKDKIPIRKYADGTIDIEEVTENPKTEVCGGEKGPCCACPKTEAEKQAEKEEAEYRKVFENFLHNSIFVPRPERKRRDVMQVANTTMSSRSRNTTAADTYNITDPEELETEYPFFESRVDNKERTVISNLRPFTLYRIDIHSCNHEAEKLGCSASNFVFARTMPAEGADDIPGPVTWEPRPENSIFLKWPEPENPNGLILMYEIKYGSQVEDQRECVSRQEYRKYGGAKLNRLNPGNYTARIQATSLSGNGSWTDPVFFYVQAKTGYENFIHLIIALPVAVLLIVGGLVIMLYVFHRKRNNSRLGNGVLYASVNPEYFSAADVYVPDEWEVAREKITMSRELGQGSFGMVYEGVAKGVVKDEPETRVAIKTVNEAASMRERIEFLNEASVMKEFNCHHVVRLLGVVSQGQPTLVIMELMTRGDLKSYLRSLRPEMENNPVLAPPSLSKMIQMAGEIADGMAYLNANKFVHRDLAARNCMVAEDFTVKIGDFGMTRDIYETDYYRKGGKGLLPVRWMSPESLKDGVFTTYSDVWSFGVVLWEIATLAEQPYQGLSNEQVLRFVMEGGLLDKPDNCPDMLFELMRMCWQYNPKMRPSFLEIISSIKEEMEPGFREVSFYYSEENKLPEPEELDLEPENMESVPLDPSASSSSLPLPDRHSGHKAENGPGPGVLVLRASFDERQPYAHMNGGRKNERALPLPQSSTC
Sequence of IR (Homo sapiens, UniProt P06213) (P06213 28-1382): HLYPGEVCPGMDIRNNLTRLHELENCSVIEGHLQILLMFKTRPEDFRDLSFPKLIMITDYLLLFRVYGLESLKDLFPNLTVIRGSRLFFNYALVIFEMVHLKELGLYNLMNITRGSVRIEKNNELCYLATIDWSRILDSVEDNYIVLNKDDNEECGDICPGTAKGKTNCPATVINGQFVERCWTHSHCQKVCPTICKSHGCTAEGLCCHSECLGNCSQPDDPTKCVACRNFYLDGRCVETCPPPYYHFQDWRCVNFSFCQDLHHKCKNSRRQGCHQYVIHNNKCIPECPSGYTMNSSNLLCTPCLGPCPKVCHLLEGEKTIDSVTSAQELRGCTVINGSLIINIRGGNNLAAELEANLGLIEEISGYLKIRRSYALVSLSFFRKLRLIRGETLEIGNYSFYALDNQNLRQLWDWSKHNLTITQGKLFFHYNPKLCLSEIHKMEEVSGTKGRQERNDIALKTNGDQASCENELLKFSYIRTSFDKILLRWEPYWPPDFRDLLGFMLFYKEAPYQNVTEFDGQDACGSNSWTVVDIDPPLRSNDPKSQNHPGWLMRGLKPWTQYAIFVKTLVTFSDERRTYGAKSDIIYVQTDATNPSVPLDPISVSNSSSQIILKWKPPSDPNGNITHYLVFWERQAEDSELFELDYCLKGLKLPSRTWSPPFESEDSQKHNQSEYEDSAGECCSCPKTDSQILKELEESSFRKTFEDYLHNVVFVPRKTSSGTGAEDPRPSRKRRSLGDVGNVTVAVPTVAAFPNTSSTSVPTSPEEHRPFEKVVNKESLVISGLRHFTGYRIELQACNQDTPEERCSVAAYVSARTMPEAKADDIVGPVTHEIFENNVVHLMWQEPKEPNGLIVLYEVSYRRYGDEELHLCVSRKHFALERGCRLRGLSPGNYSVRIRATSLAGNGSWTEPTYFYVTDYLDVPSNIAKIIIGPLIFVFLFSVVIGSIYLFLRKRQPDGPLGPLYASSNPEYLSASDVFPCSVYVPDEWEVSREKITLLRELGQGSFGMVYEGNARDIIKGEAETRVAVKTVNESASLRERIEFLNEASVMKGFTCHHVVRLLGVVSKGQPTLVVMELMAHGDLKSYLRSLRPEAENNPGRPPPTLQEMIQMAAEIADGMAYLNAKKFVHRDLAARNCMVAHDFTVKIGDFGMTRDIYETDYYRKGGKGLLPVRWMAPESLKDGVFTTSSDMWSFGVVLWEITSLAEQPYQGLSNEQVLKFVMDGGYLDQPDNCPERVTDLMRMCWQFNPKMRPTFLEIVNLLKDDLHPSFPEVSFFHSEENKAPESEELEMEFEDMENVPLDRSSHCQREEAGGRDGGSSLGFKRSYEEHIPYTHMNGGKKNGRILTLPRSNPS

## N#C/C(=C\c1ccc(O)c(O)c1)C(=O)c1ccc(O)c(O)c1 [AG 538]
IGF-1R [1]; cell free kinase assay, read-out: IC50 inhibition of IGF-1R
  IC50: 61 nM
IGF-1R [2]; cultured cells
  receptor autophosphorylation and activation of downstream targets PKB and Erk2: inhibits receptor autophosphorylation
[3]
  stability of catechol moiety: unstable due to its vulnerability to oxidation

## N#C/C(=C\c1ccc2oc(=O)[nH]c2c1)C(=O)c1ccc(O)c(O)c1 [AGL 2263]
IGF-1R [1]; cell free assays
  activity relative to parent compound AG 538 in cell free assays: somewhat less active
IGF-1R [2]; cell culture assays
  activity relative to parent compound AG 538 in cell culture assays: comparable to the parent compound
IGF-1R [2]; intact cells, read-out: IC50 inhibiting the activation of PKB in intact cells
  IC50: 6 µM
PDGFR
  PKB activation by PDGFR: did not affect

## COc1cccc(-c2cc(=O)c3ccccc3o2)c1N [PD98059, reference compound]
[4]; IGF-1 100 ng/ml, A12 40 μg/ml preincubation
  effect on IGF-1-induced migration: partially inhibited

## COc1cc([C@@H]2c3cc4c(cc3[C@H](O)[C@H]3COC(=O)[C@@H]23)OCO4)cc(OC)c1OC [PPP, picropodophyllin]
IGF-1R [5]
  IC50 on IGF-1R activity: sub-micromolar
IR [6]
  effect on IR activity: did not affect IR activity
[7]
  LD50: > 500 mg/kg
IGF-1R-positive tumors
  killing IGF-1R-positive tumors: effective at killing IGF-1R-positive tumors

## COc1cc([C@@H]2c3cc4c(cc3[C@H](O)[C@H]3COC(=O)[C@H]23)OCO4)cc(OC)c1OC [PPT, podophyllotoxin]
IGF-1R [5]
  IC50 on IGF-1R activity: sub-micromolar
IR [6]
  effect on IR activity: did not affect IR activity
β-tubulin
  cytotoxicity: cytotoxic

## COc1ccc(Cl)cc1NC(=O)Nc1cc(C)nc2ccccc12 [PQ401]
tumors
  growth rate of tumors: reduce the growth rate of tumors

## CN1CCN([C@H]2C[C@@H](c3nc(-c4ccc5ccc(-c6ccccc6)nc5c4)c4c(N)nccn43)C2)CC1 [cis-3-[3-(4-methyl-piperazin-1-yl)-cyclobutyl]-1-(2-phenyl-quinolin-7-yl)-imidazo[1,5-a]pyrazin-8-ylamine]
IGF-1R [8]
  IGF-1R activity in vivo: inhibit IGF-1R activity in vivo
IR [9]
  rise in blood sugar: without causing any substantial rise in blood sugar

## IGF-1: insulin-like growth factor 1, purchased from R&D Systems
[4]; IGF-1 100 ng/ml, FIG. 4
  increase in migration: 1.8 fold
[4]; transwell filter, 4 hours, FIG. 5
  migration of MLF in response to IGF-1: increased migration
[10]; IGF-1 50 or 100 ng/ml, serum-free, up to 96 h
  proliferation of normal mouse lung fibroblasts: did not increase proliferation; also recorded: increased proliferation was not observed
[10]; data not shown
  proliferation of activated fibroblasts derived from bleomycin-treated mice: can induce proliferation
Mouse lung fibroblasts
  Akt phosphorylation: phosphorylated in response to IGF-1 stimulation by 15 minutes and persisted until 60 minutes
  ERK phosphorylation: did not undergo phosphorylation
  IRS-1 phosphorylation: did not change
  IRS-2 phosphorylation: increased phosphorylation by 10 minutes that persisted until 30 minutes
  time to IGF-1R phosphorylation: ≤ 10 min

## IGFBP-3: insulin-like growth factor-binding protein-3 (R&D Systems)
[11]
  apoptosis of primary human lung fibroblasts: increased apoptosis was not observed
[12]
  apoptosis of primary lung epithelial cells: increased apoptosis was not observed

## siRNA 1: 5'-GGGACCCUCCUCCGGAGCCAG-3' (antisense; SEQ ID NO: 1) and 5'-GGCUCCGGAGGAGGGUCCCCG-3' (sense; SEQ ID NO: 2) (listed as RNA, chemistry not given here)
Human IGF-1R mRNA
  targeting of human IGF-1R mRNA: effective to target human IGF-1R mRNA

## siRNA 2: 5'-GGUCUUCUCACACAUCGGCUU-3' (antisense; SEQ ID NO: 3) and 5'-GCCGAUGUGUGAGAAGACCUU-3' (sense; SEQ ID NO: 4) (listed as RNA, chemistry not given here)
Human IGF-1R mRNA
  targeting of human IGF-1R mRNA: effective to target human IGF-1R mRNA
